Measurements as given in patent USRE47475E1, “Selective agents for pain suppression” (WiSys Technology Foundation, Inc., priority 2002, dated 2019).
Like-named read-outs stand apart in the source and are kept apart here.

Legend:
[1] = test system: Formalin Pain (mouse, i.p.); test: T22 formalin test (chemically induced pain); format: in vivo; settings: for protection at the acute phase of chemically induced pain: formalin test; for Change (% of Control) ± SEM, T22 Formalin Pain, Acute / Change (% of Control) ± SEM, T22 Formalin Pain, inflammatory: mouse, i.p., dose 16 (HZ-166), 10 (JY-XHE-053), 1 (XLI-JY-DMH) mg/kg; for protection at the acute phase of chemically induced pain / Change (% of Control) ± SEM, T22 Formalin Pain, Acute: acute phase; for Change (% of Control) ± SEM, T22 Formalin Pain, inflammatory: inflammatory phase
Method: This elicits a distinct bi-phasic behavioral profile in response to the formalin injection characterized by licking of the affected paw, and the number of licks is measured as a proxy for perceived pain. The first (acute) phase is thought to correspond to the direct stimulation of peripheral fibers while the second (inflammatory) phase is caused by the release of inflammatory mediators from the damaged tissue and nerve endings. Thus, this model is ideally suited for efficacy of an investigational AED against the acute and chronic hyper-responsive neuronal discharges following activation of peripheral nerve fibers.
The results of the formalin test are given both as raw data (“Response”) and in an aggregate, analyzed form (“Analysis”). In the Response section, each Trial involves sixteen animals, eight controls given an i.p. injection of vehicle and eight given the compound at a specified dose. Thus, for multiple doses of the compound, there will also be multiple control groups. The data recorded for each animal is the amount of time(s) spent licking the affected hind paw in a two minute period. These two minute periods occur at five minute intervals and continue for 45 minutes. […] From this plot, we can then determine the area under the curve (AUC) for each animal during both the acute and inflammatory stages. The AUC for each phase is shown in the analysis section of the data sheet for both control and drug-treated animals The AUC for each drug-treated animal is compared to the average result from the control group, yielding an average percent of control (reported with the SEM and p value).

[2] = test system: GABAA receptors of superficial dorsal horn neurons; test: whole-cell patch-clamp of GABA-induced currents in spinal cord slices; format: cell-based, mice; settings: diazepam 1 μM
Method: Electrophysiology of Spinal Cord Slices. […] GABAergic membrane currents are recorded from superficial dorsal horn neurons (laminae I and II) as described previously. […] GABA-induced currents are recorded from capsaicin sensitive DRG neurons 3-30 h after plating. Whole-cell patch-clamp recordings are performed from neurons identified under visual control using the infrared gradient contrast technique coupled to a video microscopy system. In both preparations, GABA (1 mM) is applied to the some of the recorded neuron via a glass pipette by short (10 ms) electronically controlled puffer applications at a frequency of 0.07 Hz.
Spinal cord GABAA receptors: Whole-cell patch-clamp electrophysiology recordings are performed in spinal cord slices of GABAA receptor mutant mice and of corresponding wt mice. […] GABA-induced membrane currents are evoked by external application of GABA (3 mM) to neurons located in the superficial layers (lamina I and II) of the spinal cord dorsal horn.

rhesus monkeys = test: conflict model of anxiolytic activity which also measures sedation; format: in vivo
Method: The data in FIGS. 21A-21F reflect the ability of the compounds or drugs to exert an anxioyic effect in rhesus monkeys (J. Rowlett, J. M. Cook et al., unpublished results) when given intravenously in propylene glycol/water solution. This is the conflict model of anxiolytic activity which also measures sedation. […] In FIG. 21B, SH-053-2′F (JY-XHE-053) is anxiolytic at a dose of greater than 0.13 mg/kg, but exerts only some slight sedation at doses greater than 1.2 mg/kg (responses decrease). In FIG. 21C it is clear the S-enantiomer of SH-053-2′F—S—CH3 is anxiolytic with no sedation up to 10-18 mg/kg, which is the highest dose tested.

[3] = target: T1, GABAA/α1 (α1β3γ2 GABAA receptor) (Homo sapiens, UniProt P14867+P18507); test: competitive binding assay with [3H]flunitrazepam
T1 construct: expressed in transfected cells
Method: (§1) Membranes were harvested with a Brandel cell harvester followed by three ice-cold washes onto polyethyleneimine-pretreated (0.3%) Whatman GF/C filters. Filters were dried overnight and then soaked in Ecoscint, a liquid scintillation cocktail (National Diagnostics; Atlanta, Ga.). Bound radioactivity was quantified by liquid scintillation counting. Membrane protein concentrations were determined using an assay kit from Bio-Rad (Hercules, Calif.) with bovine serum albumin as the standard.
as §1, with “The GABAA subunit selectivity of several compounds prepared as described above were determined using competitive binding assays. […] Membranes” for “Membranes”

[4] = target: T2, GABAA/α2 (α2β3γ2 GABAA receptor) (Homo sapiens, UniProt P18507+P47869); test: competitive binding assay with [3H]flunitrazepam
T2 construct: expressed in transfected cells
Method: as §1
as §1, with “The GABAA subunit selectivity of several compounds prepared as described above were determined using competitive binding assays. […] Membranes” for “Membranes”

[5] = target: T3, GABAA/α3 (α3β3γ2 GABAA receptor) (Homo sapiens, UniProt P18507+P34903); test: competitive binding assay with [3H]flunitrazepam
T3 construct: expressed in transfected cells
Method: as §1
as §1, with “The GABAA subunit selectivity of several compounds prepared as described above were determined using competitive binding assays. […] Membranes” for “Membranes”

[6] = target: T4, GABAA/α5 (α5β3γ2 GABAA receptor) (Homo sapiens, UniProt P18507+P31644); test: competitive binding assay with [3H]flunitrazepam
T4 construct: expressed in transfected cells
Method: as §1
as §1, with “The GABAA subunit selectivity of several compounds prepared as described above were determined using competitive binding assays. […] Membranes” for “Membranes”

[7] = target: T5, GABAA/α6 (α6β3γ2 GABAA receptor) (Homo sapiens, UniProt P18507+Q16445); test: competitive binding assay with [3H]flunitrazepam
T5 construct: expressed in transfected cells
Method: as §1
as §1, with “The GABAA subunit selectivity of several compounds prepared as described above were determined using competitive binding assays. […] Membranes” for “Membranes”

[8] = test system: Sciatic Ligation neuropathic pain; test: T23 partial ligation of the sciatic nerve (mechanical allodynia); format: in vivo, rats; settings: for Change (% of Control) ± SEM, T23 Sciatic Ligation / Significance, T23 Sciatic Ligation: dose 35.5 (HZ-166), 18 (JY-XHE-053), 1 (XLI-JY-DMH) mg/kg, TPE 2 hr
Method: Neuropathic pain. The pro- or antinociceptive effects of the compounds of the present invention are analyzed in two manners. […] Sterile technique will be used throughout the surgery. The upper thigh will be shaved and wiped off with ethanol and betadine. A small incision will then be made in the skin. The underlying muscle of the upper thigh will be separated and the sciatic nerve exposed. The nerve is separated from the surrounding connective tissue and slightly elevated by a pair of fine, curved forceps. Approximately ⅓ to ½ of the nerve is tied off by passing a needle (7.0) and nylon suture through the nerve. The muscle and skin incision are closed off separately with 5.0 suture and the animals kept warm until they have recovered from the anesthesia. This procedure is routinely done on the right side (ipsilateral) while a sham surgery is performed on the left hind leg (contralateral). The latter involves a similar procedure with the exception that the sciatic nerve on this side is only exposed. The rats will be closely monitored daily for the development of infection or untoward effects of the surgery in which case the animals will be immediately euthanized
After an appropriate time for recovery (7 days) the animals will be tested for the development of mechanical allodynia (abnormal response to a non-noxious stimulus). The animals are each put in a bottomless plexiglass box placed on a wire mesh (¼″) platform. After 30-60 minutes in which to acclimate, a baseline mechanical sensitivity is determined. This procedure is done by applying a series of calibrated Von Frey fibres perpendicularly to the plantar surface of each hind paw and holding it there for about 6 secs with enough force to slightly bend the fibre. After a positive response (withdrawal of the foot) is noted a weaker fibre is applied. This is repeated until a 50% threshold for withdrawal can be determined
The allodynic threshold is then redetermined after intraperitoneal administration of an investigational AED. Testing will be conducted at the time-to-peak effect of the AED as determined in the acute seizure model.

[9] = test system: neuropathic pain after CCI of the sciatic nerve; test: chronic constriction injury (CCI) model, mechanical sensitization (von Frey filaments); format: in vivo, mice; settings: for analgesic effects in the chronic constriction injury model of neuropathic pain: mouse, in vivo
Method: In addition, the pro- or antinociceptive effects of the compounds of the present invention are analyzed in the chronic constriction injury (CCI) model. The GABAA receptor subunit selective test compounds of the present invention are analysed in the CCI model in 7-8-week-old C57BL/6 mice. See Bennett, G. J. & Xie, Y. K. A peripheral mononeuropathy in rat that produces disorders of pain sensation like those seen in man. […] Seven to eight week old mice are anesthetized with isofluran. Unilateral constriction injury of the left sciatic nerve just proximal to the trifurcation is performed with three loose ligatures. In sham-operated animals the sciatic nerve is exposed and the connective tissue is freed, but no ligatures are applied. […] Heat hyperalgesia, cold allodynia and mechanical sensitization are assessed 7-9 days after surgery. Mechanical sensitivity is assessed with electronic von Frey filaments (IITC).
Pain studies—Neuropathic pain: HZ166 and gabapentin were analyzed in the chronic constriction injury (CCI) model. Unilateral constriction injury of the left sciatic nerve just proximal to the trifurcation was performed as described previously (Bennett and Xie, 1988). Anesthesia was induced and maintained by 2% isoflurane, combined with oxygen (30%). The sciatic nerve was exposed at the mid-thigh level proximal to the sciatic trifurcation by blunt dissection through the biceps femoris muscle. […] of nerve were freed of adhering tissue and three chromic gut ligatures (4/0) (Ethicon) were loosely put around the nerve with about 1 mm spacing. The ligatures were tied until they elicited a brief twitch in the hindlimb. The surgical wound was closed in layers. Heat hyperalgesia and mechanical sensitization were assessed 7-16 days after surgery.
Pain Studies—Mechanical sensitization: Mechanical sensitivity was assessed with dynamic von Frey filaments (IITC, Woodland Hills, Calif.). 4-5 measurements were made for each time point and animal and averaged. Measurements of paw withdrawal thresholds of the injured paw and of the contralateral paw were made alternately.
Statistical Analysis: For all different doses and vehicle, baseline paw withdrawal thresholds/latencies on day 7 after nerve ligation or on day 2 after zymosan A injection were subtracted from all later withdrawal thresholds and the area under the curve (AUC) was calculated. Drug effects were expressed as percent maximum possible effect (MPE) calculated from comparisons of paw withdrawal latencies or thresholds obtained prior to surgery or inflammation and before and after drug treatment. […] Unless otherwise indicated, statistical comparisons were made with one-way analysis of variance (ANOVA) followed by Scheffe's post hoc test. P values<0.05 were considered significant.

[10] = Binding Affinity at GABAA/α1, Table 3
[11] = Binding Affinity at GABAA/α2, Table 3
[12] = Binding Affinity at GABAA/α3, Table 3
[13] = Binding Affinity at GABAA/α5, Table 3
[14] = Table 3, read-out: Binding Affinity at GABAA/α1
[15] = Table 3, read-out: Binding Affinity at GABAA/α2
[16] = Table 3, read-out: Binding Affinity at GABAA/α3
[17] = Table 3, read-out: Binding Affinity at GABAA/α5

Structure (SMILES) | Ki [3, 10] | Ki [4, 11] | Ki [5, 12] | Ki [6, 13] | Ki [7] | protection at the acute phase of chemically induced pain [1] | Change (% of Control) ± SEM, T22 Formalin Pain, Acute [1] | Change (% of Control) ± SEM, T22 Formalin Pain, inflammatory [1] | Change (% of Control) ± SEM, T23 Sciatic Ligation [8] | Significance, T23 Sciatic Ligation [8] | analgesic effects in the chronic constriction injury model of neuropathic pain [9] | Ki [3, 14] | Ki [4, 15] | Ki [5, 16] | Ki [6, 17] | other results
CN1C(=O)CN=C(c2ccccc2)c2cc(Cl)ccc21 [Diazepam, diazepam] | – | – | – | – | – | – | – | – | – | – | – | – | – | – | – | level of pain response ([1]; mouse formalin test and model of sciatic nerve ligation): strongly reduced; potentiation of GABA induced currents ([2]; wild-type mice, mean±SEM, n=11): 150.1±7.54%; potentiation of GABA induced currents ([2]; α1 mutant mice): 165±22.3%; potentiation of GABA induced currents ([2]; α2 mutant mice): 106.9±3.6%; potentiation of GABA induced currents ([2]; α3 mutant mice): 102.5±6.6%; potentiation of GABA induced currents ([2]; α5 mutant mice): 126±13.0%; anxiolytic effect (conflict model) (rhesus monkeys; intravenously in propylene glycol/water): anxiolytic
CCOC(=O)c1ncn2c1CN=C(c1ccccc1)c1cc(I)ccc1-2 [HZ 120, Ethyl 8-iodo-6-phenyl-4H-benzo[f]imidazo[1,5-a][1,4]diazepine-3-carboxylate] | > 5000 nM | 35 nM | 78.5 nM | 20.6 nM | 32.2 nM | – | – | – | – | – | – | – | – | – | – | –
C#Cc1ccc2c(c1)C(c1ccccc1F)=NCc1c(C(=O)OCC)ncn1-2 [JY-XHE-053, 8-Acetyleno-6-(2′-fluorophenyl)-4H-benzo[f]imidazo[1,5-a][1,4]diazepine-3-carboxylate] | – | – | – | – | – | insignificant | 98.41 % of Control | 84.58 % of Control | 132 ± 7 % of Control | yes | analgesic effects | 22 nM | 12.3 nM | 34.9 nM | 0.671 nM | analgesic effect, mechanical sensitivity (von Frey) in CCI model ([9]; 8 mg/kg and 30 mg/kg i.p.): significant analgesic effect; dose at which anxiolytic (rhesus monkeys; intravenously): greater than 0.13 mg/kg
C#Cc1ccc2c(c1)C(c1ccccc1)=NCc1c(-c3nc(CC)no3)ncn1-2 [PS-I-26] | 933 nM | 366 nM | 260 nM | 394 nM | > 5000 nM | – | – | – | – | – | – | – | – | – | – | –
C#Cc1ccc2c(c1)C(c1ccccc1Cl)=NCc1nnc(C)n1-2 [XLI-JY-DMH, 8-Acetyleno-5-(2′-chlorophenyl)-1-methyl-4H-s-triazolo-[4,3-a]-1,4-benzodiazepine] | – | – | – | – | – | insignificant | 87.6 % of Control | 111.9 % of Control | 136 % of Control | no | analgesic effects | 3.3 nM | 0.58 nM | 1.9 nM | 4.4 nM | protection against neuropathic pain caused by sciatic ligation ([8]; T23 sciatic ligation): insignificant; Ki ([7]; Table 3, read-out: Binding Affinity at GABAA/α6): > 5000 nM
